From patent US8673949B2 (Bristol-Myers Squibb Company, priority 2008, dated 2014)
Several values for one entry are separate records, joined by “and”; a condition that tells them apart may be missing. Equal values may be shown once. Read-outs that look alike come from different tables or passages of the source.

How the values were obtained:
Tg4510 mice [1] = assay: Neuronal counts in CA1 and CA3 regions of hippocampus (stereology) in Tg4510 mice; format: in vivo, mouse; details: Tg4510 mice at 5.5 months
Protocol: (§1) Mice were euthanized by cervical dislocation at 5. 5 months followed by decapitation. Brains were immediately removed and divided down the midline into two hemispheres. The right hemisphere was placed into 20 mL of 4% paraformaldehyde (prepared fresh on the day of sacrifice) and stored overnight at 4° C. The following day, the brains were transferred to a tube containing 20 mL TBS (pH 7.4, 20 mM TRIS, 100 mM NaCl) and then stored at 4° C. until processing. Right hemispheres were embedded in paraffin, sectioned at 5 microns, and mounted on positively charged glass slides. The slides were dried overnight in a 60° C. oven and stored at room temperature until stained. The left hemispheres were frozen (within 2 minutes) on dry ice.
Nissl stained slides were scanned and digitized using the Aperio ScanScope (Aperio Technologies, Inc., Vista, Calif.). Images of the entire brain section were captured at high resolution and stored as files within Spectrum (Aperio software). To process images, a region of 4,000×4,000 pixels including the entire hippocampus was captured using the extract tool and saved as a JPEG file for importing into Metamorph (Molecular Devices, Sunnyvale, Calif.) for quantification of cell loss within the CA1 and CA3 regions of the hippocampus. A modified version of the single section dissector method (Moller et al. 1990) was utilized to quantify cell loss because of its suitability for thin, paraffin-embedded tissue sections. To obtain relative numbers of cells, every fifth section was collected as the paraffin-embedded brains were cut sagitally between the Bregma and approximately 0.75 mm laterally. Three regions were drawn and counted per section using Metamorph software. The same regions were used for every image and 5 sections were counted per animal, 5 slides apart. Statistics were performed using ANOVA followed by Dunnett's post-hoc test.
Previous studies had shown that Tg4510 mice lost about 60% of their neurons in the CA1 region of the hippocampus at 5.5 months (Santacruz et al. 2005). […]

[2] = Plasma, brain and liver levels after oral gavage in C57BL/6 mice; format: in vivo, mouse
Description: Below, we first report the experimental detail for preparation and isolation of Compound III, and then the biological, in vivo data is described.

[3] = Plasma, brain and liver levels of epothilone D after bolus IV in triple transgenic mice; format: in vivo, mouse; details: bolus IV 5 mpk; for concentration at […]: .33 hr
Description: (§2) To calculate an accurate brain half-life for a long half-life compound, measurements need to be taken for several half lives after a single dose.

Tg4510 mice [4] = assay: Morris water maze (MWM) in Tg4510 mice; details: vs vehicle; for MWM acquisition: locating the hidden platform: tested at 4.5 months; for MWM probe trial % pathlength in target quadrant / MWM probe trial number of platform crossings: probe 18 h after 5 days of training
Protocol: A 10× stock solution was made in 100% ethanol, and diluted just before dosing. Mice were dosed in 3 cohorts and data were combined to give a final N of 12, 9, and 15 for the vehicle, 1 mpk, and 10 mpk groups, respectively. Mice were dosed in a chemical fume hood.
Tg4510 mice were used in this study. […] At 9 weeks (+/−15 days) of age, mice were acclimated to handling with a single mock injection of phosphate buffered saline, performed within a chemical fume hood. The mice were then housed in cages kept within the chemical fume hood for 48 hours. Following the 48-hour period, the mice were transferred to clean cages and brought to a behavioral suite for testing.
Mice were again tested in the MWM after the eighth dose (19 weeks of age+/−15 days) for six days. After behavioral testing, dosing resumed until the animals were 5.5 months of age at the time of harvest.
Mice were tested in Morris water maze (MWM) on two occasions, once prior to dosing, and once two months after dosing began. The second round of water maze testing was performed in another testing room. Mice were acclimated to the experimental room for 2-3 days prior to testing. The mice were placed in a water maze of 1.5 m diameter, with a 16 cm diameter platform placed 0.5-1.0 cm under the surface of the water. The water was made opaque with non-toxic white paint and the water temperature was regulated between 22-25° C.
The mice were given 4 trials per day of up to 90 seconds each with a 10 second rest period on the platform after each trial. […] The testing room rooms each had large external cues to allow the mice to orient as they learned the location of the platform. Mice were placed under a heat lamp to prevent hypothermia after each trial. The interval between trials ranged from 25 to 45 minutes. The mice were tracked using HVS Image Advanced Tracker VP200 software (Buckingham, UK) and the total distance traveled until reaching of the platform was determined.
Statistical analysis for acquisition path length from the five trials involved a repeated measures analysis of variance. […] If the analysis indicated a significant effect of treatment, or a treatment-by-trial interaction, differences between the 1 mpk and 10 mpk groups were compared to the vehicle group using Dunnett's test. The probe pathlengths in each quadrant, and number of platform crossings in each quadrant, were analyzed using Dunnett's test. In all cases, 1 mpk and 10 mpk groups were compared to the vehicle group. All calculations were done in SAS, version 9.1, under the Windows XP Professional operating system.

neurofibrillary tangles = assay: Gallyas silver staining for neurofibrillary tangles in Tg4510 mice; format: in vivo, mouse; details: cortex and hippocampus, vs vehicle
Protocol: as §1
The Gallyas staining method was used to detect silver-positive neurofibrillary tangles and dystrophic neurites. Paraffin-embedded thin sections (5 microns) mounted on glass slides were deparaffinized and rehydrated via serial incubation in xylene (two times for 10 minutes each), 100% ethanol (two times for 10 minutes each), 95% MeOH/5% H2O2 (30 minutes), 95% ethanol (two times for 5 minutes each), 80% ethanol (two times for 5 minutes each), 50% ethanol (two times for 5 minutes each), and water (two times for 5 minutes each). […]

[5] = Plasma, brain and liver levels after bolus IV administration in nude mice; details: bolus IV 5 mpk; for concentration at 6 h / concentration at 24 h: nude, mouse, in vivo, iv, 5 mg/kg
[6] = Brain half-life of epothilone D in mice; format: in vivo, mouse; details: for half-life: mouse, brain
Description: as §2

[7] = mouse, brain, 10 mg/kg, C57BL/6 mice, oral gavage 10 mpk, read-out: Brain conc
[8] = mouse, brain, 35 mg/kg, C57BL/6 mice, oral gavage 35 mpk, read-out: Brain conc
[9] = mouse, plasma, 10 mg/kg, C57BL/6 mice, oral gavage 10 mpk, read-out: Plasma conc
[10] = mouse, plasma, 35 mg/kg, C57BL/6 mice, oral gavage 35 mpk, read-out: Plasma conc
[11] = triple transgenic (Oddo et al. 2003), mouse, brain, 5 mg/kg, read-out: Brain conc
[12] = triple transgenic (Oddo et al. 2003), mouse, plasma, 5 mg/kg, read-out: Plasma conc

Structure (SMILES): C/C1=C/C[C@@H](/C(C)=C/c2csc(C)n2)OC(=O)C[C@H](O)C(C)(C)C(=O)[C@H](C)[C@@H](O)[C@@H](C)CCC1 [Epothilone D, epothilone D]
- CA3 total cell count (Tg4510 mice [1]; 1 mpk IP weekly, vs vehicle): significant differences between the 1 mpk and non-transgenic mice compared to vehicle treated mice
- CA1 neuronal count (Tg4510 mice [1]; 1 mpk IP weekly, vs vehicle, p<0.01): substantially more CA1 neurons than vehicle-treated animals
- CA1 neuronal count (Tg4510 mice [1]; 10 mpk IP weekly): intermediate between the vehicle-treated mice and the mice treated with 1 mpk
- Plasma conc ([2]; C57BL/6 mice, oral gavage 10 mpk, 48 hr): (0.1 nM)
- Plasma conc ([2]; C57BL/6 mice, oral gavage 10 mpk, 96 hr): (0.1 nM)
- Plasma conc ([2]; C57BL/6 mice, oral gavage 35 mpk, 24 hr): (0.5 nM)
- concentration at 1 h [2, 7]: 10.6 nM
- concentration at 3 h [2, 7]: 7 nM
- concentration at 4 h [2, 7]: 9.9 nM
- concentration at 8 h [2, 7]: 6.4 nM
- concentration at 13 h [2, 7]: 6.3 nM
- concentration at 24 h ([2]; mouse, brain, 10 mg/kg, C57BL/6 mice, oral gavage 10 mpk, 24 hr, read-out: Brain conc): 9.1 nM
- concentration at 48 h ([2]; mouse, brain, 10 mg/kg, C57BL/6 mice, oral gavage 10 mpk, 48 hr, read-out: Brain conc): 5.4 nM
- concentration at 96 h ([2]; mouse, brain, 10 mg/kg, C57BL/6 mice, oral gavage 10 mpk, 96 hr, read-out: Brain conc): 3 nM
- concentration at 1 hr [2, 8]: 61.3 nM
- concentration at 5 hr [2, 8]: 76.9 nM
- concentration at 24 hr ([2]; mouse, brain, 35 mg/kg, C57BL/6 mice, oral gavage 35 mpk, 24 hr, read-out: Brain conc): 118 nM
- concentration at 1 h [2, 9]: 15.1 nM
- concentration at 3 h [2, 9]: 3.9 nM
- concentration at 4 h [2, 9]: 2.5 nM
- concentration at 8 h [2, 9]: 1.4 nM
- concentration at 13 h [2, 9]: 0.1 nM
- concentration at 24 h ([2]; mouse, plasma, 10 mg/kg, C57BL/6 mice, oral gavage 10 mpk, 24 hr, read-out: Plasma conc): 0.2 nM
- concentration at 1 hr [2, 10]: 52.7 nM
- concentration at 5 hr [2, 10]: 3.6 nM
- time brain levels were maintained ([2]; oral dosing 10 and 35 mpk (also IV, Table 2)): more than 24 h
- retention in brain tissue after a single dose [3]: at least 168 h
- Plasma conc ([3]; 96 hr): <LLQ (0.6 nM)
- Plasma conc ([3]; 168 hr): <LLQ (0.6 nM)
- concentration at 24 h ([3]; mouse, liver, 5 mg/kg, below LLQ, read-out: liver levels): < 49 nM
- concentration at 0.05 h [3, 11]: 1130 nM
- concentration at 0.17 h [3, 11]: 595 nM
- concentration at 1 h [3, 11]: 422 nM
- concentration at 3 h [3, 11]: 468 nM
- concentration at 6 h [3, 11]: 141 nM
- concentration at 16 h [3, 11]: 210 nM
- concentration at 24 h [3, 11]: 82.7 nM
- concentration at 96 h ([3]; triple transgenic (Oddo et al. 2003), mouse, brain, 5 mg/kg, 96 hr, read-out: Brain conc): 25.2 nM
- concentration at 168 h ([3]; triple transgenic (Oddo et al. 2003), mouse, brain, 5 mg/kg, 168 hr, read-out: Brain conc): 16.3 nM
- concentration at […] [3, 11]: 529 nM
- concentration at 0.05 h [3, 12]: 25100 nM
- concentration at 0.17 h [3, 12]: 2000 nM
- concentration at 1 h [3, 12]: 325 nM
- concentration at 3 h [3, 12]: 70 nM
- concentration at 6 h [3, 12]: 43 nM
- concentration at 16 h [3, 12]: 0.8 nM
- concentration at 24 h [3, 12]: 0.9 nM
- concentration at […] [3, 12]: 549 nM
- MWM acquisition: locating the hidden platform (Tg4510 mice [4]; 1 mpk IP once weekly, p<0.01): able to locate the hidden platform in the MWM more quickly
- MWM probe trial % pathlength in target quadrant (Tg4510 mice [4]; 1 mpk IP weekly for 2 months): statistically significant differences in both measures as compared with the vehicle group
- MWM probe trial number of platform crossings (Tg4510 mice [4]; 1 mpk IP weekly for 2 months): statistically significant differences in both measures as compared with the vehicle group
- MWM acquisition: locating the hidden platform (Tg4510 mice [4]; 10 mpk IP once weekly): trend toward improvement
- MWM probe trial % pathlength in target quadrant (Tg4510 mice [4]; 10 mpk IP weekly for 2 months): significantly greater performance compared to the vehicle group
- MWM probe trial number of platform crossings (Tg4510 mice [4]; 10 mpk IP weekly for 2 months): not when using the number of platform crossings measure
- Gallyas silver staining: neurofibrillary tangles (neurofibrillary tangles; 1 mpk IP weekly): much lower levels of neurofibrillary tangles than did vehicle-treated mice
- Gallyas silver staining: neurofibrillary tangles (neurofibrillary tangles; 10 mpk IP weekly): trend toward improvement
- brain levels versus liver levels ([5]; 6 and 24 h after dosing): high brain levels that exceeded liver levels
- concentration at 6 h ([5]; Brain conc): 2790 nM
- concentration at 24 h ([5]; Brain conc): 2050 nM
- concentration at 6 h ([5]; Plasma conc): 6 nM
- concentration at 24 h ([5]; Plasma conc): 1 nM
- Half life (brain) ([6]; Mouse, IP, 10 mpk, 10 mg/kg): 37 h and 45 h and 46 h
- half-life ([6]; intravenous, oral, intraperitoneal, mice, multiple routes of administration and dosages, read-out: brain half life, average (converted)): 46 h
- half-life ([6]; ip, 1 mg/kg, Mouse, IP, 1 mpk, read-out: Half life (brain) (converted)): 44 h
- half-life ([6]; ip, 10 mg/kg, Mouse, IP, 10 mpk, read-out: Half life (brain) (converted)): 41 h
- half-life ([6]; iv, 5 mg/kg, Mouse, IV, 5 mpk, read-out: Half life (brain) (converted)): 61 h
- half-life ([6]; po, 10 mg/kg, Mouse, Oral, 10 mpk, read-out: Half life (brain) (converted)): 46 h
